“Also recorded” adds a separate entry of the source. No end group written: not given here.
How the values were obtained:
[1] = tested on: S. mutans wild-type UA159; assay: S. mutans acid resistance assay (growth in THYE at pH 7.5 and pH 5.5); format: cell-based, Streptococcus mutans; conditions: 5 μg/ml of peptide analog; for Growth (pH 7.5): THYE pH 7.5; for Acid resistance (pH 5.5): growth in THYE pH 5.5
Method: The effect of peptides on acid tolerance was evaluated by assessment of growth in THYE at pH 7.5 and pH 5.5. Overnight S. mutans wild-type UA159 cells were diluted (1:20) with prewarmed THYE broth and incubated at 37° C. in air with 5% CO2 until an OD600 of approximately 0.4 was reached. A 20-fold dilution was made into 400 μl of either THYE pH 7.5 or THYE pH 5.5 broth containing different concentrations (0, 0.1, 0.5, 2, and 5 μg per ml) of peptide analogs and added in the individual wells of a 100-well Bioscreen C plate in triplicate. Wells without cells were used as blank controls. A Bioscreen microbiology reader (Labsystems, Helsinki, Finland) was employed to continuously grow cells and measure cell growth for 16 h at 37° C. Measurements were taken every 20 min with shaking to prevent cell aggregation.

[2] = tested on: S. mutans wild-type UA159; assay: S. mutans biofilms formed on polystyrene microtiter plates (b), SDM-glucose, safranin (first study); format: cell-based, Streptococcus mutans; conditions: 5 μg/ml of peptide analog; ↓ = reduced biomass compared to biofilm grown in presence of wild-type CSP
Method: Biofilms were developed in 96-well polystyrene microtiter plates. […] Wells without cells were used as blank controls. […] After the incubation, the planktonic cells were carefully removed and the plates were air dried overnight. The plates were then stained with 0.01% (wt/vol) safranin for 10 min, rinsed with sterile distilled water and air dried. Biofilms were quantified by measuring the absorbance of stained biofilms at 490 nm with a microplate reader (model 3550; Bio-Rad Laboratories, Richmond, Calif.).

[3] = tested on: S. mutans wild-type UA159; assay: S. mutans competence assay (genetic transformation with plasmid pDL289); format: cell-based, Streptococcus mutans; conditions: 5 μg/ml of peptide analog; for Transformation efficiency (vs no CSP): compared with natural transformation without exogenous CSP, 'no effect' = no significant difference by comparison with CSP; for Transformation efficiency (vs 5 μg CSP): compared with wild-type S. mutans CSP (5 μg CSP)
Method: To determine if the peptide analogs had any impact on the development of genetic competence, S. mutans UA159 wild-type cells were assayed for genetic transformation. Overnight cultures of S. mutans UA159 were diluted (1:20) with prewarmed THYE broth and incubated at 37° C. in air with 5% CO2 until an optical density (OD) of approximately 0.1 at 600 nm was reached. The culture was then divided into six aliquots containing 1 μg/ml of plasmid pDL289 and different concentrations (0, 0.1, 0.5, 2, and 5 μg per ml) of peptide analogs. The cultures were incubated at 37° C. in air with 5% CO2 for 2.5 h, gently sonicated for 10 s to disperse the streptococcal chains, and spread on THYE plates containing kanamycin. Plates were incubated at 37° C. in air with 5% CO2 for 48 h. Total recipient cells were counted by spreading serial dilutions on THYE agar plates without antibiotic. Transformation efficiency was expressed as the percentage of kanamycin resistant transformants over the total number of recipient cells.

S. sobrinus = assay: Growth and biofilm formation on polystyrene microtiter plates, crystal violet; format: cell-based, Streptococcus sobrinus; conditions: for Biofilm formation: additional studies
Method: (§1) They were grown in Todd-Hewitt broth containing 0.3% yeast extract (THYE) at pH 5.5 or 7.5. […] In liquid media, cultures were incubated in closed screw-cap tubes without agitation at 37° C. in an anaerobic chamber (5% CO2).
(§2) Wells without cells were used as blank controls.

S. sanguis = assay: as above; format: cell-based, Streptococcus sanguis; conditions: for Biofilm formation: additional studies
Method: as §1, §2

S. gordonii = assay: as above; format: cell-based, Streptococcus gordonii; conditions: for Biofilm formation: additional studies
Method: as §1, §2

S. mitis = assay: as above; format: cell-based, Streptococcus mitis; conditions: for Biofilm formation: additional studies
Method: as §1, §2

S. pneumoniae = assay: as above; format: cell-based, Streptococcus pneumoniae; conditions: for Biofilm formation: additional studies
Method: as §1, §2

S. oralis = assay: as above; format: cell-based, Streptococcus oralis; conditions: for Biofilm formation: additional studies
Method: as §1, §2

[4] = tested on: mixed culture of the above Streptococcus spp.; assay: Mixed culture biofilm formation; format: cell-based; conditions: data not shown
Description: as §2

| Substance | Growth (pH 7.5) [1] | Acid resistance (pH 5.5) [1] | Bioflim formation (SDM-glucose) [2] | also measured |
| --- | --- | --- | --- | --- |
| A2: S. mutans CSP analog, 5th residue removed from C′ (SGSLSTFFRLFNASFTQALGK; E2 peptide analog) | no effect | significant decrease in cell growth | no effect | – |
| B1: S. mutans CSP analog, 2nd residue removed from N′ (SGSLSTFFRLFNRSFTQALK; F1 peptide analog) | ↓growth | growth | no effect | Transformation efficiency (vs no CSP) [3]: no effect; Transformation efficiency (vs 5 μg CSP) [3]: no significant effect |
| C1: S. mutans CSP analog, 3rd residue removed from N′ (SGSLSTFFRLFNRSFTQAGK; G1 peptide analog) | ↓growth | growth | no effect | Transformation efficiency (vs no CSP) [3]: no effect; Transformation efficiency (vs 5 μg CSP) [3]: no significant effect |
| D1: S. mutans CSP analog, 4th residue removed from N′ (SGSLSTFFRLFNRSFTQLGK; H1 peptide analog) | ↓growth | growth | no effect | – |
| E1: S. mutans CSP analog, 5th residue removed from N′ (SGSLSTFFRLFNRSFTALGK; A2 peptide analog) | ↓growth | growth | no effect | – |
| F1: S. mutans CSP analog, 2nd residue removed from C′ (SGSLSTFFVLFNRSFTQALGK; B2 peptide analog) | diminution of cell growth | diminution of cell growth | – | Biofilm formation (S. sobrinus): significantly reduce biofilm formation; Biofilm formation (S. sanguis): significantly reduce biofilm formation; Biofilm formation (S. gordonii): significantly reduce biofilm formation; Biofilm formation (S. mitis): significantly reduce biofilm formation; Biofilm formation (S. pneumoniae): significantly reduce biofilm formation; Biofilm formation (S. oralis): significantly reduce biofilm formation |
| G1: S. mutans CSP analog, 3rd residue removed from C′ (SGSLSTFFALFNRSFTQALGK; C2 peptide analog) | ↓growth | growth | – | – |
| IH-1: S. mutans CSP analog, 1st residue removed from N′ (SGSSTFFRLFNRSFTQALGK; D1 peptide analog) | ↓growth | growth | no effect | Transformation efficiency (vs no CSP) [3]: no effect^a; Transformation efficiency (vs 5 μg CSP) [3]: no significant effect |
| IH-2: S. mutans CSP analog, 1st residue removed from C′ (SGSLTFFRLFNRSFTQALGK; E1 peptide analog) | ↓growth | growth | no effect | Transformation efficiency (vs no CSP) [3]: no effect; Transformation efficiency (vs 5 μg CSP) [3]: no significant effect |
| SGSLSTFFALFNRSFTQALGK (SGSLSTFFRLFNRSFTQALGA; G2 peptide analog) [C2, S. mutans CSP analog, substitution of 1st R residue with A] | no effect | significant decrease in cell growth | no effect | Biofilm formation (S. sobrinus): significantly reduce biofilm formation; Biofilm formation (S. sanguis): significantly reduce biofilm formation; Biofilm formation (S. gordonii): significantly reduce biofilm formation; Biofilm formation (S. mitis): significantly reduce biofilm formation; Biofilm formation (S. pneumoniae): significantly reduce biofilm formation; Biofilm formation (S. oralis): significantly reduce biofilm formation |
| SGSLSTFFRLFNASFTQALGK [E2] | no effect; also recorded: without affecting the cell growth | significant decrease in cell growth; also recorded: inhibited cell growth | – | Growth (S. sobrinus; 5 μg/ml): inhibitory effects; Biofilm formation (S. sobrinus): significantly reduce biofilm formation; Growth (S. sanguis; 5 μg/ml): inhibitory effects; Biofilm formation (S. sanguis): significantly reduce biofilm formation; Growth (S. gordonii; 5 μg/ml): inhibitory effects; Biofilm formation (S. gordonii): significantly reduce biofilm formation; Growth (S. mitis; 5 μg/ml): inhibitory effects; Biofilm formation (S. mitis): significantly reduce biofilm formation; Mixed culture biofilm formation [4]: significant inhibitory effect; Growth (S. pneumoniae; 5 μg/ml): inhibitory effects; Biofilm formation (S. pneumoniae): significantly reduce biofilm formation; Growth (S. oralis; 5 μg/ml): inhibitory effects; Biofilm formation (S. oralis): significantly reduce biofilm formation |
| SGSLSTFFRLFNRSFTQALGA [G2, S. mutans CSP analog, substitution of K residue with A] | diminution of cell growth | diminution of cell growth | – | – |
| SGSLSTFFRLFNRSFTQALGV [F2, S. mutans CSP analog, substitution of K residue with V] | diminution of cell growth | diminution of cell growth | – | – |
| SGSLSTFFRLFNVSFTQALGK [D2, S. mutans CSP analog, substitution of 2nd R residue with V] | no effect | significant decrease in cell growth | no effect | – |
| SGSLSTFFVLFNRSFTQALGK (SGSLSTFFRLFNRSFTQALGV; F2 peptide analog) [B2, S. mutans CSP analog, substitution of 1st R residue with V] | no effect | significant decrease in cell growth | no effect | – |
| SGTLSTFFRLFNRSFTQALGK [B3] | no effect | significant decrease in cell growth | – | Biofilm formation (S. sobrinus): significantly reduce biofilm formation; Biofilm formation (S. sanguis): significantly reduce biofilm formation; Biofilm formation (S. gordonii): significantly reduce biofilm formation; Biofilm formation (S. mitis): significantly reduce biofilm formation; Biofilm formation (S. pneumoniae): significantly reduce biofilm formation; Biofilm formation (S. oralis): significantly reduce biofilm formation |

Reference: patent US7556807B2, “Signal peptides, nucleic acid molecules and methods for treatment of caries” (priority 2001, dated 2009)
